The target in this assay is T1, human ACC2 (Homo sapiens, UniProt O00763).
T1 construct: made in house; host or cells: insect cells (baculoviral expression system)
T1 sequence (O00763 129-2458 limits assumed): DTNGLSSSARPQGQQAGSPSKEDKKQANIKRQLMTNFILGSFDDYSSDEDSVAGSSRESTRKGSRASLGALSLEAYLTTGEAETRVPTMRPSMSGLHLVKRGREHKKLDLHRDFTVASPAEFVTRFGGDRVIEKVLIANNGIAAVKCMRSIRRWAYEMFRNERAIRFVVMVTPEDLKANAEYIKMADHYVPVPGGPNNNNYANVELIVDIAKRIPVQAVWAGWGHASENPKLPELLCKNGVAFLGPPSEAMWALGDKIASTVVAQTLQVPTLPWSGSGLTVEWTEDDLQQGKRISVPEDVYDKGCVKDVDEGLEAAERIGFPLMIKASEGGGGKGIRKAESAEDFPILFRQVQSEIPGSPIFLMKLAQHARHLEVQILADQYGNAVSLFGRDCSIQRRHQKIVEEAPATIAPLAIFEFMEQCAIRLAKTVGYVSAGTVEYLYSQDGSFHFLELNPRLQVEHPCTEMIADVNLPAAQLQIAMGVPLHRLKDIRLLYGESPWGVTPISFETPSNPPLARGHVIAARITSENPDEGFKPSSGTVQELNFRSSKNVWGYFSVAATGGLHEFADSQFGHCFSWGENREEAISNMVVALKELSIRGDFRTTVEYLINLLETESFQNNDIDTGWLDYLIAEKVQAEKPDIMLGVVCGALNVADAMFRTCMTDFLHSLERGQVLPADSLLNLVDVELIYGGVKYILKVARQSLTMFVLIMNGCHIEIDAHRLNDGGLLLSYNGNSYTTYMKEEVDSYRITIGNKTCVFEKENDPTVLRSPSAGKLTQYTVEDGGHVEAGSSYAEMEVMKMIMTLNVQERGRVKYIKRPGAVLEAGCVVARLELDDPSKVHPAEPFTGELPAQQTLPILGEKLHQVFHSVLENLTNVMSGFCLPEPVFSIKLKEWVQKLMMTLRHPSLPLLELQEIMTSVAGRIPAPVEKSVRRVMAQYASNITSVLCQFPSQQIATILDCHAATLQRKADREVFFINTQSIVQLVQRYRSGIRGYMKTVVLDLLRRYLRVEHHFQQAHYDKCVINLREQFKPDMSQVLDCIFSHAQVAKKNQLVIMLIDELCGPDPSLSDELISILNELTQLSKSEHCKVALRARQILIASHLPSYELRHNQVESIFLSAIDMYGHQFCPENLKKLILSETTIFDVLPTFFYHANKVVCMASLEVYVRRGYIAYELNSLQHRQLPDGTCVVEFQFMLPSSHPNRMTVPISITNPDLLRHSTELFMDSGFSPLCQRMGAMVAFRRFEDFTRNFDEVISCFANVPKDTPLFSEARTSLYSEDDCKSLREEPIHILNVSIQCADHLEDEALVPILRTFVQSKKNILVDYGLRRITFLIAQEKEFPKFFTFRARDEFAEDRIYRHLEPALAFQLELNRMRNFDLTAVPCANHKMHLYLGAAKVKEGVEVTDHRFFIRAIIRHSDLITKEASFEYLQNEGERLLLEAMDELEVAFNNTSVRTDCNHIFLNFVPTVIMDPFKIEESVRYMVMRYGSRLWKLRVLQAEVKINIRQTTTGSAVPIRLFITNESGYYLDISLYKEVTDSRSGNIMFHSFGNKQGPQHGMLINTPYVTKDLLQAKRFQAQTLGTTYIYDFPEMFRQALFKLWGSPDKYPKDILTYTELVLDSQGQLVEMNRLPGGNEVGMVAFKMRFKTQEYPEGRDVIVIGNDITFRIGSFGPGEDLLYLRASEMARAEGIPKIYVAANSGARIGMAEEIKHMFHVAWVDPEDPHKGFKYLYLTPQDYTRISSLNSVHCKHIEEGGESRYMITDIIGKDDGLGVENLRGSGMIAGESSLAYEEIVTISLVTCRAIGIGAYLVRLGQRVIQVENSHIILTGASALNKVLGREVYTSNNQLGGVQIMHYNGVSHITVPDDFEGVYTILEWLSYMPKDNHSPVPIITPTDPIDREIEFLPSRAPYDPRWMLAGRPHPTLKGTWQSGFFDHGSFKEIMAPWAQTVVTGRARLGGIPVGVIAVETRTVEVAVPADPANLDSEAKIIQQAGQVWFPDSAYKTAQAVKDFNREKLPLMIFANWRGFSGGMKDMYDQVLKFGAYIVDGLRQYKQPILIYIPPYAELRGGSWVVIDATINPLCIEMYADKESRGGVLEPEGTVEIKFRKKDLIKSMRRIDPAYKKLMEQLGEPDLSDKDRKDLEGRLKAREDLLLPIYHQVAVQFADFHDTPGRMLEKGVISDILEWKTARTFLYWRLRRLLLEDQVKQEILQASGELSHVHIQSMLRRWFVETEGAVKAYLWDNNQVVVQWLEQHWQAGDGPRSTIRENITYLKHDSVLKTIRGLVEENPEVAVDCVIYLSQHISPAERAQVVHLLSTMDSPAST
As to the kind of experiment: ACC2 assay, spectrophotometric 384 well assay (NADH-linked, coupled lactate dehydrogenase/pyruvate kinase). Type of assay: biochemical. Particulars: ACC2 assay, hACC2 construct lacking 128 N-terminal amino acids, 25° C., 340 nm; read-out: IC50. The gist of the method: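 ADP output tracked via pyruvate kinase/lactate dehydrogenase NADH oxidation, slope at 340 nm over 15 min, 25° C, with 500 μM ATP and 200 μM each acetyl-CoA and NADH. Enzyme: insect-cell-expressed human ACC2, N-terminal 128 residues deleted; pH 7.5 Tris with citrate, KHCO3. IC50 from four-parameter regression versus vehicle and no-acetyl-CoA controls.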
Regarding `CC(=O)N[C@@H](C)c1ccc(C2CCN(c3cc(Oc4cccc(F)c4)ncn3)CC2)cc1` [Example 11.27], the IC50 (in general, the concentration that gives 50% inhibition) is 300 nM.
With `CC(=O)N[C@@H](C)c1ccc(C2CCN(c3ncc(-c4cncc(C#N)c4)cn3)CC2)cc1` [Example 10.79] the figure was 1100 nM.
As to `COC(=O)N[C@@H](C)c1ccc(C2CCN(c3ccc(OCC(C)C)cn3)CC2)cc1` [Example 1.134], the half-maximal inhibitory concentration (IC50) is 280 nM.
Regarding `COC(=O)N[C@@H](C)c1ccc(C2CCN(c3ccnc(OC(C)C)c3)CC2)cc1` [Example 1.136], the 50% inhibitory concentration (IC50) was 500 nM.
For `CC(=O)N[C@@H](C)c1ccc(C2CCN(c3cccc(OC4CCCCC4)c3)CC2)cc1` [Example 9.6], the IC50 is 130 nM.
As to `CCCOc1ccc(N2CCC(c3ccc([C@H](C)NC(=O)C4CC4)cc3)CC2)cc1` [Example 1.23], the IC50 is 50 nM.
With `CC(=O)N[C@@H](C)c1ccc(C2CCN(c3ccnc(N4CC5CCCC5C4)n3)CC2)cc1` (stereo partly shown) [Example 11.78] the figure was 610 nM.
With `CCOc1ccc(N2CCC(c3ccc([C@H](C)NC(=O)C4(C)COC4)cc3)CC2)cc1` [Example 6.27] the figure was 4800 nM.
With `CC(=O)N[C@@H](C)c1ccc(C2CCN(c3ncc(-c4ccccn4)cn3)CC2)cc1` [Example 10.203] the figure was 160 nM; with `C=CCOc1ccc(N2CCC(c3ccc([C@H](C)NC(C)=O)cc3)CC2)cc1` [Example 9.22], 160 nM.
`CC(=O)N[C@@H](C)c1ccc(C2CCN(c3ccnc(OC(C)C4CC4)c3)CC2)cc1` (stereo partly shown) [Example 19.27]: the 50% inhibitory concentration (IC50) stood at 410 nM.
The same measure for `CC(=O)N[C@@H](C)c1ccc(C2CCN(c3ccc(OCC4CC4(F)F)cc3)CC2)cc1` (stereo partly shown) [Example 8.66]: 60 nM.
Take `CC(=O)N[C@@H](C)c1ccc(C2CCN(c3ccc(OC4CCC4)c(F)c3)CC2)cc1` [Example 8.13]: the half-inhibitory concentration (IC50) is 110 nM.
For the compound `CC(=O)N[C@@H](C)c1ccc(C2CCN(c3ncc(-c4ccc(F)cc4F)cn3)CC2)cc1` [Example 10.53], the 50% inhibitory concentration (IC50) worked out at 80 nM.
The same measure for `CC(=O)N[C@@H](C)c1ccc(C2CCN(c3nccc(C4CC4)c3C)CC2)cc1` [Example 10.303]: 160 nM; for `CCOc1cnc(N2CCC(c3ccc([C@H](C)NC(C)=O)cc3)CC2)c(F)c1` [Example 1.100]: 520 nM; for `CCOc1ncc(N2CCC(c3ccc([C@H](C)NC(=O)C4CC4)cc3)CC2)cn1` [Example 16.8]: 3900 nM.
With `CC(=O)N[C@@H](C)c1ccc(C2CCN(c3ccc(-c4ccc(C)cc4)cn3)CC2)cc1` [Example 10.314] the figure was 280 nM; with `CC(=O)N[C@@H](C)c1ccc(C2CCN(c3ncc(C(=O)NCCC(C)O)cn3)CC2)cc1` (stereo partly shown) [Example 18.75], 17800 nM; with `CC(=O)N[C@@H](C)c1ccc(C2CCN(c3ncc(-c4cccn4C)cn3)CC2)cc1` [Example 10.72], 1200 nM.
Regarding `CCOc1ccc(N2CCC(c3ccc([C@H](C)NC(=O)Cc4ccccc4)cc3)CC2)cc1` [Example 6.21], the half-maximal inhibitory concentration (IC50) is 1600 nM.
The same measure for `CCOc1ccc(N2CCC(c3ccc([C@H](C)NC(=O)Nc4ccon4)cc3)CC2)cc1` [Example 14.70]: 790 nM; for `CC(=O)N[C@@H](C)c1ccc(C2CCN(c3ccnc(Oc4ccccc4)c3)CC2)cc1` [Example 3.12]: 60 nM; for `CCC(NC(C)=O)c1ccc(C2CCN(c3ccc(OCC4CC4)cc3F)CC2)cc1` (stereo not shown) [Example 1.202]: 1900 nM.
With `COc1ccc(N2CCC(c3ccc([C@H](C)NC(C)=O)cc3)CC2)nc1` [Example 5.2] the figure was 330 nM; with `CC(=O)N[C@@H](C)c1ccc(C2CCN(c3ncc(C(=O)NCC(N)=O)cn3)CC2)cc1` [Example 18.45], 17200 nM.
`CC(=O)N[C@@H](C)c1ccc(C2CCN(c3ncc(C(=O)NCC4OCCO4)cn3)CC2)cc1` [Example 18.83]: the IC50 was found to be 8700 nM.
As for `COc1cccc(Oc2cc(N3CCC(c4ccc([C@H](C)NC(C)=O)cc4)CC3)ncn2)c1` [Example 11.31], the IC50 is 690 nM.

For the origin of these results see patent publication US9006450B2 (Boehringer Ingelheim International GmbH, priority 2010, dated 2015).
